Results from US7132540B1, “Hindered spiro-ketal nitroxides” (Nova Molecular Technologies Inc., priority 2001, dated 2006).

Assays:
[1] = Polymerization of acrylonitrile at 70° C. with benzoyl peroxide in the presence of nitroxide inhibitors; conditions: acrylonitrile 10 ml, benzoyl peroxide 0.35 g, inhibitor 0.1 g (0.1 ml for 6), water bath 70° C.
Procedure: (§1) Testing was done to determine the effectiveness of various nitroxides in inhibiting the polymerization of various vinyl monomers.
(§2) A sample of vinyl monomer (10 ml) was placed in an open 25 ml test tube. To each tube benzoyl peroxide (0.35 g) and 0.1 g of nitroxide inhibitor was added, then the tubes were placed in a water bath maintained by a thermostat at 70° C. The selected vinyl monomers polymerize under these conditions without nitroxide inhibitors within a few minutes.
(§3) Vinyl monomers: acrylonitrile, vinyl acetate and methyl acrylate.
Polymerization of Acrylonitrile at 70° C. in the presence of Nitroxide Inhibitors.

[2] = Polymerization of vinyl acetate at 70° C. with benzoyl peroxide in the presence of nitroxide inhibitors; conditions: vinyl acetate 10 ml, benzoyl peroxide 0.35 g, inhibitor 0.1 g (0.1 ml for 6), water bath 70° C.
Procedure: as §1, §2, §3
Polymerization of Vinyl Acetate at 70° C. in the presence of Nitroxide Inhibitors.

[3] = Polymerization of methyl acrylate at 70° C. with benzoyl peroxide in the presence of nitroxide inhibitors; conditions: methyl acrylate 10 ml, benzoyl peroxide 0.35 g, inhibitor 0.1 g (0.1 ml for 6), water bath 70° C.
Procedure: as §1, §2, §3
Polymerization of Methyl Acrylate at 70° C. in the presence of Nitroxide Inhibitors.

| Compound | Inhibition Time [1] [min] | Inhibition Time [2] [min] | Inhibition Time [3] [min] |
| --- | --- | --- | --- |
| CC1(C)CC2(CC(C)(C)N1[O])OCCCO2 [Example 1, 1,5-dioxa-9-aza-8,8,10,10-tetramethylspiro[5,5]undec-9-yloxy] | 40 | 205 | 165 |
| CC1(C)CC2(CC(C)(C)N1[O])OCCCO2 [Example 2, 1,5-dioxa-9-aza-8,8,10,10 tetramethylspiro[5,5]undec-9-yloxy] | 60 | 145 | 166 |
| COC1CC(C)(C)N(O)C(C)(C)C1 [Inhibitor 3] | 305 | >300 | >300 |
| CC1(C)CCCC(C)(C)N1O [Inhibitor 5] | 60 | 385 | 180 |
